Results published in patent publication US6355799B1, “Substituted benzene compounds, process for their preparation, and herbicidal and defoliant compositions containing them” (ISK Americas Incorporated, priority 1997, dated 2002).

How the values were obtained:
Type in all cases: in vivo
[1] = system: velvetleaf (Abutilon theophrasti, ABUTH); assay: Post-emerge test, greenhouse herbicide activity screening; conditions: rating scale 0-100 (0 no damage, 100 complete death), 14 days after application
Procedure, shortened: (§1)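 Rating: 0–100 visual injury, 14 DAA. Application: acetone, 187 l/ha, 15–1000 g ai/ha, flat-fan track sprayer with nozzle 40–45 cm above soil or canopy. Post-emerge runs used 0.25% v/v surfactant on 2–3 leaf plants.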

[2] = system: johnsongrass (Sorghum halepense, SORHA); assay: as above; conditions: rating scale 0-100 (0 no damage, 100 complete death), 14 days after application
Procedure, shortened: as §1

[3] = system: lambsquarters (Chenopodium album, CHEAL); assay: as above; conditions: rating scale 0-100 (0 no damage, 100 complete death), 14 days after application
Procedure, shortened: as §1

[4] = system: green foxtail (Setaria viridis, SETVI); assay: as above; conditions: rating scale 0-100 (0 no damage, 100 complete death), 14 days after application
Procedure, shortened: as §1

[5] = system: large crabgrass (Digitaria sanguinalis, DIGSA); assay: as above; conditions: rating scale 0-100 (0 no damage, 100 complete death), 14 days after application
Procedure, shortened: as §1

[6] = system: redroot pigweed (Amaranthus retroflexus, AMARE); assay: as above; conditions: rating scale 0-100 (0 no damage, 100 complete death), 14 days after application
Procedure, shortened: as §1

[7] = system: ivyleaf morningglory (Ipomoea hederacea, IPOHE); assay: as above; conditions: rating scale 0-100 (0 no damage, 100 complete death), 14 days after application
Procedure, shortened: as §1

[8] = system: barnyardgrass (Echinochloa crus-galli, ECHCG); assay: as above; conditions: rating scale 0-100 (0 no damage, 100 complete death), 14 days after application
Procedure, shortened: as §1

[9] = system: sicklepod (Cassia obtusifolia, CASOB); assay: as above; conditions: rating scale 0-100 (0 no damage, 100 complete death), 14 days after application
Procedure, shortened: as §1

[10] = system: upland rice (Oryza sp., var. Tebonnet, RICE); assay: Post-emerge test, crop safety; conditions: rating scale 0-100 (0 no damage, 100 complete death), 14 days after application
Procedure, shortened: (§2)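 Compounds in acetone were track-sprayed at 187 l/ha, 15–1000 g ai/ha, onto sandy loam pots. Pre-emerge seeds were sown one day before spraying, with surface watering afterwards. Post-emerge plants were at the 2–3 leaf stage and sprayed with 0.25% v/v non-ionic surfactant. Injury was rated 0–100 at 14 days.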

[11] = system: field corn (Zea mays L., var. Dekalb 535, CORN); assay: Post-emerge test, crop safety; conditions: rating scale 0-100 (0 no damage, 100 complete death), 14 days after application
Procedure, shortened: as §2

[12] = system: redroot pigweed (Amaranthus retroflexus, AMARE); assay: Pre-emerge test, greenhouse herbicide activity screening; conditions: rating scale 0-100, 14 days after application
Procedure, shortened: as §2

[13] = system: velvetleaf (Abutilon theophrasti, ABUTH); assay: as above; conditions: rating scale 0-100, 14 days after application
Procedure, shortened: as §2

[14] = system: johnsongrass (Sorghum halepense, SORHA); assay: as above; conditions: rating scale 0-100, 14 days after application
Procedure, shortened: as §2

[15] = system: lambsquarters (Chenopodium album, CHEAL); assay: as above; conditions: rating scale 0-100, 14 days after application
Procedure, shortened: as §2

[16] = system: green foxtail (Setaria viridis, SETVI); assay: as above; conditions: rating scale 0-100, 14 days after application
Procedure, shortened: as §2

[17] = system: large crabgrass (Digitaria sanguinalis, DIGSA); assay: as above; conditions: rating scale 0-100, 14 days after application
Procedure, shortened: as §2

[18] = system: ivyleaf morningglory (Ipomoea hederacea, IPOHE); assay: as above; conditions: rating scale 0-100, 14 days after application
Procedure, shortened: as §2

[19] = system: common ragweed (Ambrosia artemisizfolia L., AMBEL); assay: as above; conditions: rating scale 0-100, 14 days after application
Procedure, shortened: as §2

[20] = system: barnyardgrass (Echinochloa crus-galli, ECHCG); assay: as above; conditions: rating scale 0-100, 14 days after application
Procedure, shortened: as §2

[21] = system: sicklepod (Cassia obtusifolia, CASOB); assay: as above; conditions: rating scale 0-100, 14 days after application
Procedure, shortened: as §2

[22] = system: upland rice (Oryza sp., var. Tebonnet, RICE); assay: Pre-emerge test, crop safety; conditions: rating scale 0-100, 14 days after application
Procedure, shortened: (§3)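 Herbicidal damage is scored 0 (none) to 100 (complete plant death) two weeks after a simulated field spray. Rates span 15–1000 g ai/ha, delivered in acetone at 187 l/ha. For post-emergence treatments, plants have 2–3 leaves and the spray carries 0.25% v/v non-ionic surfactant.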

[23] = system: field corn (Zea mays L., var. Dekalb 535, CORN); assay: Pre-emerge test, crop safety; conditions: rating scale 0-100, 14 days after application
Procedure, shortened: as §3

COC(=O)C(Cl)Cc1c(OC)c(Cl)cc(F)c1-n1c(=O)cc(C(F)(F)F)n(C)c1=O (centres unmarked) [14-3]
Post-emerge Herbicidal Activity, phytotoxicity rating ABUTH ([1]; Rate 63 g ai/ha): 100
Post-emerge Herbicidal Activity, phytotoxicity rating ABUTH ([1]; Rate 250 g ai/ha): 100
Post-emerge Herbicidal Activity, phytotoxicity rating SORHA ([2]; Rate 63 g ai/ha): 80
Post-emerge Herbicidal Activity, phytotoxicity rating SORHA ([2]; Rate 250 g ai/ha): 70
Post-emerge Herbicidal Activity, phytotoxicity rating CHEAL ([3]; Rate 63 g ai/ha): 90
Post-emerge Herbicidal Activity, phytotoxicity rating CHEAL ([3]; Rate 250 g ai/ha): 100
Post-emerge Herbicidal Activity, phytotoxicity rating SETVI ([4]; Rate 63 g ai/ha): 30
Post-emerge Herbicidal Activity, phytotoxicity rating SETVI ([4]; Rate 250 g ai/ha): 70
Post-emerge Herbicidal Activity, phytotoxicity rating DIGSA ([5]; Rate 63 g ai/ha): 99
Post-emerge Herbicidal Activity, phytotoxicity rating DIGSA ([5]; Rate 250 g ai/ha): 100
Post-emerge Herbicidal Activity, phytotoxicity rating AMARE ([6]; Rate 63 g ai/ha): 95
Post-emerge Herbicidal Activity, phytotoxicity rating AMARE ([6]; Rate 250 g ai/ha): 100
Post-emerge Herbicidal Activity, phytotoxicity rating IPOHE ([7]; Rate 63 g ai/ha): 50
Post-emerge Herbicidal Activity, phytotoxicity rating IPOHE ([7]; Rate 250 g ai/ha): 100
Post-emerge Herbicidal Activity, phytotoxicity rating ECHCG ([8]; Rate 63 g ai/ha): 99
Post-emerge Herbicidal Activity, phytotoxicity rating ECHCG ([8]; Rate 250 g ai/ha): 100
Post-emerge Herbicidal Activity, phytotoxicity rating CASOB ([9]; Rate 63 g ai/ha): 10
Post-emerge Herbicidal Activity, phytotoxicity rating CASOB ([9]; Rate 250 g ai/ha): 75
Post-emerge phytotoxicity rating RICE (crop damage) ([10]; Rate 63 g ai/ha): 5
Post-emerge phytotoxicity rating RICE (crop damage) ([10]; Rate 250 g ai/ha): 80
Post-emerge phytotoxicity rating CORN (crop damage) ([11]; Rate 63 g ai/ha): 100
Post-emerge phytotoxicity rating CORN (crop damage) ([11]; Rate 250 g ai/ha): 100
Pre-emerge herbicidal activity, phytotoxicity rating AMARE ([12]; 63 g ai/ha): 100
Pre-emerge herbicidal activity, phytotoxicity rating AMARE ([12]; 250 g ai/ha): 100
Pre-emerge herbicidal activity, phytotoxicity rating ABUTH ([13]; 63 g ai/ha): 100
Pre-emerge herbicidal activity, phytotoxicity rating ABUTH ([13]; 250 g ai/ha): 100
Pre-emerge herbicidal activity, phytotoxicity rating SORHA ([14]; 63 g ai/ha): 0
Pre-emerge herbicidal activity, phytotoxicity rating SORHA ([14]; 250 g ai/ha): 60
Pre-emerge herbicidal activity, phytotoxicity rating CHEAL ([15]; 63 g ai/ha): 100
Pre-emerge herbicidal activity, phytotoxicity rating CHEAL ([15]; 250 g ai/ha): 100
Pre-emerge herbicidal activity, phytotoxicity rating SETVI ([16]; 63 g ai/ha): 40
Pre-emerge herbicidal activity, phytotoxicity rating SETVI ([16]; 250 g ai/ha): 80
Pre-emerge herbicidal activity, phytotoxicity rating DIGSA ([17]; 63 g ai/ha): 30
Pre-emerge herbicidal activity, phytotoxicity rating DIGSA ([17]; 250 g ai/ha): 90
Pre-emerge herbicidal activity, phytotoxicity rating IPOHE ([18]; 63 g ai/ha): 0
Pre-emerge herbicidal activity, phytotoxicity rating IPOHE ([18]; 250 g ai/ha): 50
Pre-emerge herbicidal activity, phytotoxicity rating AMBEL ([19]; 63 g ai/ha): 0
Pre-emerge herbicidal activity, phytotoxicity rating AMBEL ([19]; 250 g ai/ha): 65
Pre-emerge herbicidal activity, phytotoxicity rating ECHCG ([20]; 63 g ai/ha): 0
Pre-emerge herbicidal activity, phytotoxicity rating ECHCG ([20]; 250 g ai/ha): 40
Pre-emerge herbicidal activity, phytotoxicity rating CASOB ([21]; 63 g ai/ha): 20
Pre-emerge herbicidal activity, phytotoxicity rating CASOB ([21]; 250 g ai/ha): 80
Pre-emerge phytotoxicity rating, crop damage RICE ([22]; 63 g ai/ha): 0
Pre-emerge phytotoxicity rating, crop damage RICE ([22]; 250 g ai/ha): 50
Pre-emerge phytotoxicity rating, crop damage CORN ([23]; 63 g ai/ha): 0
Pre-emerge phytotoxicity rating, crop damage CORN ([23]; 250 g ai/ha): 90

CCOC(=O)CCc1c(OC)c(Cl)cc(F)c1-n1c(=O)cc(C(F)(F)F)n(C)c1=O [14-1]
Post-emerge Herbicidal Activity, phytotoxicity rating ABUTH ([1]; Rate 63 g ai/ha): 85
Post-emerge Herbicidal Activity, phytotoxicity rating ABUTH ([1]; Rate 250 g ai/ha): 98
Post-emerge Herbicidal Activity, phytotoxicity rating SORHA ([2]; Rate 63 g ai/ha): 25
Post-emerge Herbicidal Activity, phytotoxicity rating SORHA ([2]; Rate 250 g ai/ha): 75
Post-emerge Herbicidal Activity, phytotoxicity rating CHEAL ([3]; Rate 63 g ai/ha): 80
Post-emerge Herbicidal Activity, phytotoxicity rating CHEAL ([3]; Rate 250 g ai/ha): 98
Post-emerge Herbicidal Activity, phytotoxicity rating SETVI ([4]; Rate 63 g ai/ha): 40
Post-emerge Herbicidal Activity, phytotoxicity rating SETVI ([4]; Rate 250 g ai/ha): 70
Post-emerge Herbicidal Activity, phytotoxicity rating DIGSA ([5]; Rate 63 g ai/ha): 80
Post-emerge Herbicidal Activity, phytotoxicity rating DIGSA ([5]; Rate 250 g ai/ha): 95
Post-emerge Herbicidal Activity, phytotoxicity rating AMARE ([6]; Rate 63 g ai/ha): 100
Post-emerge Herbicidal Activity, phytotoxicity rating AMARE ([6]; Rate 250 g ai/ha): 100
Post-emerge Herbicidal Activity, phytotoxicity rating IPOHE ([7]; Rate 63 g ai/ha): 85
Post-emerge Herbicidal Activity, phytotoxicity rating IPOHE ([7]; Rate 250 g ai/ha): 100
Post-emerge Herbicidal Activity, phytotoxicity rating ECHCG ([8]; Rate 63 g ai/ha): 85
Post-emerge Herbicidal Activity, phytotoxicity rating ECHCG ([8]; Rate 250 g ai/ha): 95
Post-emerge Herbicidal Activity, phytotoxicity rating CASOB ([9]; Rate 63 g ai/ha): 55
Post-emerge Herbicidal Activity, phytotoxicity rating CASOB ([9]; Rate 250 g ai/ha): 70
Post-emerge phytotoxicity rating RICE (crop damage) ([10]; Rate 63 g ai/ha): 40
Post-emerge phytotoxicity rating RICE (crop damage) ([10]; Rate 250 g ai/ha): 80
Post-emerge phytotoxicity rating CORN (crop damage) ([11]; Rate 63 g ai/ha): 85
Post-emerge phytotoxicity rating CORN (crop damage) ([11]; Rate 250 g ai/ha): 100
Pre-emerge herbicidal activity, phytotoxicity rating AMARE ([12]; 63 g ai/ha): 100
Pre-emerge herbicidal activity, phytotoxicity rating AMARE ([12]; 250 g ai/ha): 100
Pre-emerge herbicidal activity, phytotoxicity rating ABUTH ([13]; 63 g ai/ha): 75
Pre-emerge herbicidal activity, phytotoxicity rating ABUTH ([13]; 250 g ai/ha): 100
Pre-emerge herbicidal activity, phytotoxicity rating SORHA ([14]; 63 g ai/ha): 0
Pre-emerge herbicidal activity, phytotoxicity rating SORHA ([14]; 250 g ai/ha): 90
Pre-emerge herbicidal activity, phytotoxicity rating CHEAL ([15]; 63 g ai/ha): 98
Pre-emerge herbicidal activity, phytotoxicity rating CHEAL ([15]; 250 g ai/ha): 100
Pre-emerge herbicidal activity, phytotoxicity rating SETVI ([16]; 63 g ai/ha): 15
Pre-emerge herbicidal activity, phytotoxicity rating SETVI ([16]; 250 g ai/ha): 55
Pre-emerge herbicidal activity, phytotoxicity rating DIGSA ([17]; 63 g ai/ha): 40
Pre-emerge herbicidal activity, phytotoxicity rating DIGSA ([17]; 250 g ai/ha): 85
Pre-emerge herbicidal activity, phytotoxicity rating IPOHE ([18]; 63 g ai/ha): 30
Pre-emerge herbicidal activity, phytotoxicity rating IPOHE ([18]; 250 g ai/ha): 75
Pre-emerge herbicidal activity, phytotoxicity rating AMBEL ([19]; 63 g ai/ha): 0
Pre-emerge herbicidal activity, phytotoxicity rating AMBEL ([19]; 250 g ai/ha): 0
Pre-emerge herbicidal activity, phytotoxicity rating ECHCG ([20]; 63 g ai/ha): 15
Pre-emerge herbicidal activity, phytotoxicity rating ECHCG ([20]; 250 g ai/ha): 30
Pre-emerge herbicidal activity, phytotoxicity rating CASOB ([21]; 63 g ai/ha): 0
Pre-emerge herbicidal activity, phytotoxicity rating CASOB ([21]; 250 g ai/ha): 0
Pre-emerge phytotoxicity rating, crop damage RICE ([22]; 63 g ai/ha): 15
Pre-emerge phytotoxicity rating, crop damage RICE ([22]; 250 g ai/ha): 45
Pre-emerge phytotoxicity rating, crop damage CORN ([23]; 63 g ai/ha): 0
Pre-emerge phytotoxicity rating, crop damage CORN ([23]; 250 g ai/ha): 10
